This note sets out measurements from patent publication US5525599A, “7-substituted-amino-3-substituted-3-cephem-4-carboxylic acids” (Eli Lilly and Company, priority 1993, dated 1996).

One assay has as its system Strept. pyogenes (C203). In words: In vitro activity (MIC), agar dilution method. It is filed as cell-based. Conditions: Streptococcus pyogenes; Strept. pyogenes (C203), agar dilution; read-out: MIC. Here is the method: (§1) Cephalosporins 9a-o were assayed against a broad array of Gram-positive and Gram-negative bacteria in Mueller-Hinton agar by the 2-fold serial dilution method, (Kirst, H. A.; J. Antibiot. 1982, 35, 1675).
(§2) Test compounds were diluted to an appropriate range of concentrations in 0.1M phosphate buffer (pH 7), incorporated into Mueller-Hinton agar (difco) supplemented with 1% Bacto-Supplement C (Difco) at 50° C. and allowed to solidify in petri dishes. Fresh overnight cultures of test bacteria were diluted to approximately 1×10^4 cells/mL aand applied in […] to the surface of the agar plates. The inoculated plates were incubated overnight at 35° C. in ambient air. MIC endpoints were recorded as the lowest antibiotic concentrations that inhibited the development of visible bacterial growth on the plates.
(Agar dilution tests growth on a series of plates holding different concentrations.)

The next assay has as its system K. pneumonia (X68). In words: In vitro activity (MIC), agar dilution method. Conditions: Klebsiella pneumoniae. It is filed as cell-based. How it is done:
as §1, §2

A further assay relates to Staph. epiderm. (222). In words: In vitro activity (MIC), agar dilution method. Conditions: Staphylococcus epidermidis; Staph. epiderm. (222), methicillin-resistant strain, agar dilution; read-out: MIC. Type of assay: cell-based. How it is done:
as §1, §2

The next assay relates to Enter. faecalis (2041). In words: In vitro activity (MIC), agar dilution method. Type of assay: cell-based. Conditions: Enterococcus faecalis; Enter. faecalis (2041), agar dilution; read-out: MIC. Here is the method: as §1, §2
The test system of another assay is E. coli (N10). In words: In vitro activity (MIC), agar dilution method. It is filed as cell-based. The following applies: Escherichia coli. Here is the method: as §1, §2
For a further assay, the system named is Staph. aureus (X400). In words: In vitro activity (MIC), agar dilution method. Type of assay: cell-based. The following applies: Staphylococcus aureus; Staph. aureus (X400), methicillin-resistant strain, agar dilution; read-out: MIC. Here is the method:
as §1, §2

The test system of a further assay is Staph. aureus (S13E). In words: In vitro activity (MIC), agar dilution method. Type of assay: cell-based. Conditions: Staphylococcus aureus. Here is the method: as §1, §2
Another assay concerns Enter. faecium (X66). In words: In vitro activity (MIC), agar dilution method. It is filed as cell-based. Conditions: Enterococcus faecium; Enter. faecium (X66), agar dilution; read-out: MIC. How it is done:
as §1, §2

In a further assay the test system is E. coli (EC14). In words: In vitro activity (MIC), agar dilution method. Type of assay: cell-based. Conditions: Escherichia coli. How it is done: as §1, §2
The test system of the next assay is K. pneumonia (X26). In words: In vitro activity (MIC), agar dilution method. Type of assay: cell-based. Conditions: Klebsiella pneumoniae; K. pneumonia (X26), agar dilution; read-out: MIC. How it is done:
as §1, §2

A further assay deals with Staph. aureus (X1.1). In words: In vitro activity (MIC), agar dilution method. It is filed as cell-based. The following applies: Staphylococcus aureus; Staph. aureus (X1.1), agar dilution; read-out: MIC. How it is done:
as §1, §2

In another assay the test system is Staph. epiderm. (270). In words: In vitro activity (MIC), agar dilution method. Type of assay: cell-based. The following applies: Staphylococcus epidermidis, methicillin-resistant strain. Here is the method:
as §1, §2

A further assay deals with K. pneumonia (KAE). In words: In vitro activity (MIC), agar dilution method. Type of assay: cell-based. Conditions: Klebsiella pneumoniae. Here is the method: as §1, §2
The next assay relates to H. influenzae (C.L.). In words: In vitro activity (MIC), agar dilution method. Type of assay: cell-based. Conditions: Haemophilus influenzae; H. influenzae (C.L.), agar dilution; read-out: MIC. How it is done: as §1, §2
The subject of another assay is Staph. aureus (V41). In words: In vitro activity (MIC), agar dilution method. It is filed as cell-based. Conditions: Staphylococcus aureus; Staph. aureus (V41), agar dilution; read-out: MIC. How it is done: as §1, §2
A further assay concerns E. coli (TEM). In words: In vitro activity (MIC), agar dilution method. Type of assay: cell-based. Conditions: Escherichia coli. Here is the method: as §1, §2
The test system of the next assay is H. influenzae (76). In words: In vitro activity (MIC), agar dilution method. It is filed as cell-based. The following applies: Haemophilus influenzae; H. influenzae (76), agar dilution; read-out: MIC. Here is the method: as §1, §2
Assay [1] concerns 33 strains of methicillin-resistant staphylococci. In words: Geometric mean MICs against 33 strains of methicillin-resistant staphylococci. Type of assay: cell-based. The following applies: for MIC: 33 strains, read-out: Geometric mean MIC. Here is the method: as §2
It is known that resistance to methicillin in staphylococci is often of the heterogeneous type and therefore not easily detected. […] (Goldstein, F. W.; Acar, J. J. Antimicrob. Chemother. […], 27, 549). […] J.; Drake T. A.; Rusnak, M. G.; Sande, M. A. J. Infect. Dis. 1984, 149, 894).

A further assay relates to other Gram(-) bacteria. In words: In vitro activity (MIC), agar dilution method. Type of assay: cell-based.
Assay [2] in a line: MICs against 4 strains of methicillin-resistant staphylococci. It is filed as cell-based, Staphylococcus aureus and Staphylococcus epidermidis. Conditions: Staphylococcus aureus, read-out: minimal inhibitory concentrations (MICs). Here is the method:
as §1, §2

Where [3] appears, read: K. pneumonia (X68), agar dilution, read-out: MIC.
Where [4] appears, read: E. coli (N10), agar dilution, read-out: MIC.
Where [5] appears, read: E. coli (EC14), agar dilution, read-out: MIC.
The mark [6] stands for this setting: K. pneumonia (KAE), agar dilution, read-out: MIC.

Converted amounts (≈) assume the structure as drawn. Read-outs that look alike come from different tables or passages of the source.

Take `CO/N=C(\C(=O)N[C@@H]1C(=O)N2C(C(=O)O)=C(COC(C)=O)CS[C@H]12)c1csc(N)n1` [Cefot, Cefotaxime, reference compound]: the MIC in the assay on Strept. pyogenes (C203) was determined as 0.008 µg/mL (≈ 0.0176 µM); with K. pneumonia (X68) (setting [3]), 0.015 µg/mL (≈ 0.0329 µM); with Staph. epiderm. (222) it was 2 µg/mL (≈ 4.39 µM); in the assay with Enter. faecalis (2041), 1 µg/mL (≈ 2.2 µM); with E. coli (N10) (setting [4]) it was 0.06 µg/mL (≈ 0.132 µM); in the assay on Staph. aureus (X400), 128 µg/mL (≈ 281 µM). Moreover, the MIC with Staph. aureus (S13E) was 64 µg/mL (≈ 141 µM); in the assay with Enter. faecium (X66), 128 µg/mL (≈ 281 µM); with E. coli (EC14) (setting [5]), 0.015 µg/mL (≈ 0.0329 µM); in the assay with K. pneumonia (X26), 0.008 µg/mL (≈ 0.0176 µM); with Staph. aureus (X1.1), 1 µg/mL (≈ 2.2 µM); against Staph. epiderm. (270), 8 µg/mL (≈ 17.6 µM). Also, the MIC is 1 µg/mL (≈ 2.2 µM) in the assay on K. pneumonia (KAE) (setting [6]); 0.008 µg/mL (≈ 0.0176 µM) in the assay on H. influenzae (C.L.); 2 µg/mL (≈ 4.39 µM) with Staph. aureus (V41); 0.008 µg/mL (≈ 0.0176 µM) against E. coli (TEM); 0.008 µg/mL (≈ 0.0176 µM) in the assay with H. influenzae (76).
Consider `CC(=O)OCC1=C(C(=O)O)N2C(=O)[C@@H](NC(=O)Cc3csc(-c4ccccc4O)n3)[C@H]2SC1` [9a, [6R-[6A,7B(R*)]]-3-[(Acetyloxy)methyl]-7-[[[2-(2-hydroxyphenyl)-4-thiazolyl]acetyl]amino]-8-oxo-5-thia-1-azabicyclo[4.2.0]oct-2-ene-2-carboxylic Acid], for which the MIC in [1] (MHA + 4% NaCl, 35° C.) is 2.4 µg/mL; in assay [1] (MHA), 1.7 µg/mL (≈ 3.47 µM); against other Gram(-) bacteria, above 64 µg/mL; in assay [2] it was at most 16 µg/mL; in the assay on Strept. pyogenes (C203), 1 µg/mL (≈ 2.04 µM); against K. pneumonia (X68), 128 µg/mL (≈ 261 µM). Moreover, the MIC with Staph. epiderm. (222) was found to be 4 µg/mL (≈ 8.17 µM); in the assay with Enter. faecalis (2041), 2 µg/mL (≈ 4.09 µM); against E. coli (N10), 128 µg/mL (≈ 261 µM); in the assay with Staph. aureus (X400), 2 µg/mL (≈ 4.09 µM); with Enter. faecium (X66), 16 µg/mL (≈ 32.7 µM); in the assay on E. coli (EC14), 128 µg/mL (≈ 261 µM). Also, the MIC was determined as 2 µg/mL (≈ 4.09 µM) in the assay with K. pneumonia (X26); 0.03 µg/mL (≈ 0.0613 µM) with Staph. aureus (X1.1); 0.125 µg/mL (≈ 0.255 µM) with Staph. epiderm. (270); 128 µg/mL (≈ 261 µM) against K. pneumonia (KAE); 8 µg/mL (≈ 16.3 µM) in the assay on H. influenzae (C.L.); 0.25 µg/mL (≈ 0.511 µM) in the assay with Staph. aureus (V41). For the same molecule, the MIC in the assay on E. coli (TEM) stood at 128 µg/mL (≈ 261 µM); in the assay on H. influenzae (76), 0.5 µg/mL (≈ 1.02 µM). The “MICs relative to clinically achievable concentrations for cephalosporins” value in assay [1] (in words, 4% NaCl) was “remained in the range usually considered to be clinically achievable concentrations for cephalosporins”. Moreover, the “change of MICs in the presence of NaCl” value in assay [1] (in words, 4% NaCl) is “only slightly elevated in the presence of NaCl”.
Regarding `O=C(Cc1csc(-c2c(O)cccc2O)n1)N[C@@H]1C(=O)N2C(C(=O)O)=C(Cl)CS[C@H]12` [9f, [6R-[6A, 7B (R*)]]-3-Chloro-7-[[[2-(2,6-dihydroxyphenyl)-4-thiazolyl]acetyl]amino]-8-oxo-5-thia-1-azabicyclo[4.2.0]oct-2-ene-2-carboxylic Acid], the MIC with other Gram(-) bacteria was above 64 µg/mL; in the assay with Strept. pyogenes (C203) it was 0.06 µg/mL (≈ 0.128 µM); with K. pneumonia (X68) (setting [3]) it was 32 µg/mL (≈ 68.4 µM); in the assay on Staph. epiderm. (222), 2 µg/mL (≈ 4.27 µM); in the assay with Enter. faecalis (2041), 8 µg/mL (≈ 17.1 µM); with E. coli (N10) (setting [4]), 32 µg/mL (≈ 68.4 µM). Besides, the MIC was 16 µg/mL (≈ 34.2 µM) in the assay on Staph. aureus (X400); 8 µg/mL (≈ 17.1 µM) in the assay on Enter. faecium (X66); 32 µg/mL (≈ 68.4 µM) in the assay on E. coli (EC14) (setting [5]); 0.5 µg/mL (≈ 1.07 µM) in the assay on K. pneumonia (X26); 16 µg/mL (≈ 34.2 µM) in the assay with Staph. aureus (X1.1); 8 µg/mL (≈ 17.1 µM) in the assay on Staph. epiderm. (270). Moreover, the MIC with K. pneumonia (KAE) (setting [6]) worked out at 128 µg/mL (≈ 274 µM); with H. influenzae (C.L.), 1 µg/mL (≈ 2.14 µM); in the assay with Staph. aureus (V41) it was 16 µg/mL (≈ 34.2 µM); in the assay with H. influenzae (76), 1 µg/mL (≈ 2.14 µM).
